Values of other authors in article PMC7582876, “Antiproliferative Properties of a Few Auranofin-Related Gold(I) and Silver(I) Complexes in Leukemia Cells and their Interferences with the Ubiquitin Proteasome System” (Molecules, 2020).

Tested on: CEM/ADR5000 cells
Set-up: method as in PMID 18413831
Conditions: ref [27]; cited from earlier work

## COc1cccc2c1C(=O)c1c(O)c3c(c(O)c1C2=O)C[C@@](O)(C(=O)CO)C[C@@H]3O[C@H]1C[C@H](N)[C@H](O)[C@H](C)O1 [doxorubicin, Doxorubicin]
  resistance to doxorubicin: more than 1000 fold
